Experimental findings from ChEMBL document CHEMBL3576820, “Discovery of benzimidazole oxazolidinediones as novel and selective nonsteroidal mineralocorticoid receptor antagonists” (ACS Med Chem Lett, 2015) are described below.

Calls of active or inactive are those of the source. No cut-off for these calls is given here.

One series deals with Estrogen receptor beta (Homo sapiens, UniProt Q92731). The series is described as follows: Antagonist activity at human estrogen receptor beta assessed as inhibition of agonist-induced protein interaction with steroid receptor co-activator peptide by cell-based reporter gene assay. A general note: A reporter such as luciferase makes a cellular process visible.
In series [1] the target is T1, Mineralocorticoid receptor (Homo sapiens, UniProt P08235).
T1 sequence (P08235 whole entry): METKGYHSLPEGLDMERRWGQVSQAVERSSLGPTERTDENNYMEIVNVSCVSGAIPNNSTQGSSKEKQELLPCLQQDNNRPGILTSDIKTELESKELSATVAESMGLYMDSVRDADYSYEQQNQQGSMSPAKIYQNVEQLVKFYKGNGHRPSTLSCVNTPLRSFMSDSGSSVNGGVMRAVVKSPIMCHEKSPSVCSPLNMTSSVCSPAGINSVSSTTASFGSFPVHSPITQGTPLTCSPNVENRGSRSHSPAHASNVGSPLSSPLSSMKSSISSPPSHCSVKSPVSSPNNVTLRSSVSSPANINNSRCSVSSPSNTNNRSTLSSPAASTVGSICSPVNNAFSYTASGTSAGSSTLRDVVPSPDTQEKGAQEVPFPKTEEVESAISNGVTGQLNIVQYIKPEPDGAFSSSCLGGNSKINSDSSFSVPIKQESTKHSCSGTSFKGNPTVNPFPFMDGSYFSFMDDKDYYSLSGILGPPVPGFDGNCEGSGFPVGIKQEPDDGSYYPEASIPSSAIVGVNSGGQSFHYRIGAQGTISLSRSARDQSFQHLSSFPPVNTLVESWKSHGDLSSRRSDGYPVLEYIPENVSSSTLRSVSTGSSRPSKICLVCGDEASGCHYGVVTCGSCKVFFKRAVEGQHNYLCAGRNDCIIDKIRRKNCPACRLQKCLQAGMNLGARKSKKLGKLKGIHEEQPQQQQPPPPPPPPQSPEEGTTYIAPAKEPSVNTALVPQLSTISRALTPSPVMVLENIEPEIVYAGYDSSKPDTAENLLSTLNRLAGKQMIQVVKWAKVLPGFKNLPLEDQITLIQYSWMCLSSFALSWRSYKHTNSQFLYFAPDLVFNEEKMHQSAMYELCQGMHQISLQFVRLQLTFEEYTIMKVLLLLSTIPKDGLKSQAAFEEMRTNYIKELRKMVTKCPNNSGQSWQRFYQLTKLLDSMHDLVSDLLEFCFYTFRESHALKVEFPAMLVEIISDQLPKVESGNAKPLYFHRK
Briefly: Antagonist activity at human mineralocorticoid receptor overexpressed in CHOK1 cells assessed as inhibition of aldosterone-induced protein interaction with coactivator peptide after 6 hrs by luminescence assay. Type of series: cell-based, CHO-K1.

A short description of series [2]: Metabolic stability in human liver microsomes assessed as compound remaining at 1 uM after 0.5 hrs. Type of series: ADME. The note with it: read-out: Stability. For orientation: Liver microsomes are vesicles of endoplasmic reticulum, rich in cytochrome P450 enzymes.
A further series addresses T2, Androgen receptor (Homo sapiens, UniProt P10275).
T2 sequence (P10275 whole entry): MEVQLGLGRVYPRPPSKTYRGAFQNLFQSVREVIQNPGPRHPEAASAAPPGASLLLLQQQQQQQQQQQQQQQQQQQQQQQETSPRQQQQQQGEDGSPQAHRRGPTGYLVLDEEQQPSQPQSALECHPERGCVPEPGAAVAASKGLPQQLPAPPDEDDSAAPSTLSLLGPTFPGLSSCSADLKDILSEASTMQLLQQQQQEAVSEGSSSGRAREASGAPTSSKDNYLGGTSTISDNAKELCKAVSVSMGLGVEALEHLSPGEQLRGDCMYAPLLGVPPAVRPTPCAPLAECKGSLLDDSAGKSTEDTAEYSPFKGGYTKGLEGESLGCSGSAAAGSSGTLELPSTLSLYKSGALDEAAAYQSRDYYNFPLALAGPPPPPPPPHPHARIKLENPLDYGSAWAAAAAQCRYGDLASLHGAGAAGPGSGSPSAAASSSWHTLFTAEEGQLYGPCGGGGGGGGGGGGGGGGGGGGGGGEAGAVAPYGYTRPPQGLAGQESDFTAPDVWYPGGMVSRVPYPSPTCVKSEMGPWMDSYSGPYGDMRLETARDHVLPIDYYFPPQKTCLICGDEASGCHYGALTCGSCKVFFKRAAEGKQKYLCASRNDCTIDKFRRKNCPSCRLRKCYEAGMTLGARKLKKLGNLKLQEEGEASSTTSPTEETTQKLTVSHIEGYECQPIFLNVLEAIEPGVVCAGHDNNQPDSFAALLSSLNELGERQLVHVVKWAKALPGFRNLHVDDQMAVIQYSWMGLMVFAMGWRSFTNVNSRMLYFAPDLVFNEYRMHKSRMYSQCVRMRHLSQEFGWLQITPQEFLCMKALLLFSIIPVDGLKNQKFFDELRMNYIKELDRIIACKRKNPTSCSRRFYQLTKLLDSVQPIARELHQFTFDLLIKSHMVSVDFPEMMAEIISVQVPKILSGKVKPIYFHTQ
Briefly: Antagonist activity at human androgen receptor expressed in CHOK1 cells assessed as inhibition of D(-)-norgestrel-induced protein interaction with steroid receptor co-activator peptide after 24 hrs by beta-galactosidase reporter gene assay. It is filed as cell-based, CHO-K1.

Series [3] deals with T3, Estrogen receptor (Homo sapiens) (UniProt P03372).
T3 sequence (whole entry): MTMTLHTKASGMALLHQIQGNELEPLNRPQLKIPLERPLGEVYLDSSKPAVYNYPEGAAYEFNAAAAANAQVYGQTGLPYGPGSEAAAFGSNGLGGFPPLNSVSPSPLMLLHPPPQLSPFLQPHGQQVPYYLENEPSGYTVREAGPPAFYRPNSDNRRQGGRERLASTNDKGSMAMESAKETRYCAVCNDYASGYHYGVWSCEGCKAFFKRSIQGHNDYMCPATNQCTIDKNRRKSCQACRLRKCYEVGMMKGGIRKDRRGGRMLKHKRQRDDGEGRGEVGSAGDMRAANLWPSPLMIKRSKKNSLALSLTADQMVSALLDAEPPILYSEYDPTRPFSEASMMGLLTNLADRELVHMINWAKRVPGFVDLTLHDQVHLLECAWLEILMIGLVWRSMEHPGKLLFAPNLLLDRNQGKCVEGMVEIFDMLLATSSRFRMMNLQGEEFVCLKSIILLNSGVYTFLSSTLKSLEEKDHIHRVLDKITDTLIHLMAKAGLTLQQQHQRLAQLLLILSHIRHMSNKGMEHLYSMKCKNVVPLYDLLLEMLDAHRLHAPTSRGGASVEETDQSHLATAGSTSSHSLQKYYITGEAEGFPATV
The series is described as follows: Agonist activity at human estrogen receptor alpha by cell-based assay.

In series [4] the target is T4, Mineralocorticoid receptor (Homo sapiens) (UniProt P08235).
T4 sequence (whole entry): T1 sequence (P08235 whole entry)
The series is described as follows: Agonist activity at human mineralocorticoid receptor by cell-based assay.

Chain of Estrogen receptor beta (Q92731 whole entry): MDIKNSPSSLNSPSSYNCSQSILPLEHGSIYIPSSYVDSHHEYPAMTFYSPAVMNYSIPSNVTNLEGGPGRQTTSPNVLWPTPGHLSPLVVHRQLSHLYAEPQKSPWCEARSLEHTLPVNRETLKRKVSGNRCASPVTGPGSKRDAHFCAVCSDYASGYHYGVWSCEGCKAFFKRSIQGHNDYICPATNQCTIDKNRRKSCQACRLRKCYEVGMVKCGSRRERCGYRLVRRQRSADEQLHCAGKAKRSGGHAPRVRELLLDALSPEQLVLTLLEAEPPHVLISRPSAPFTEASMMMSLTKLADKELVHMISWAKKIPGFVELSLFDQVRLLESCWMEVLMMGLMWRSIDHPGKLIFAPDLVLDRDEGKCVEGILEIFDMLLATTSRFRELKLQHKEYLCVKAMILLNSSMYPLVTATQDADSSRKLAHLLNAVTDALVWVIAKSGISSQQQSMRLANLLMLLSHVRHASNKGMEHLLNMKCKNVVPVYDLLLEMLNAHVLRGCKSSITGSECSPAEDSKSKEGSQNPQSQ

The IC50 is the point on the concentration scale where inhibition reaches its midpoint. In the case of `C[C@H](c1ccc(F)cc1)N1C(=O)O[C@](Cc2ccccc2)(c2nc3c(NS(C)(=O)=O)cccc3[nH]2)C1=O`, the concentration for half-maximal inhibition (IC50) on Estrogen receptor beta came to 7300 nM; in series [1], 210 nM; at Androgen receptor, 11 µM. Besides, the remaining at 0.5 h, 1 µM in series [2] came to 46%. Also, the outcome in series [3] and in series [4] was inactive.
As for `C[C@H](c1ccc(F)cc1)N1C(=O)O[C@](Cc2ccccc2)(c2nc3cc(C(F)(F)F)ccc3[nH]2)C1=O`, the half-inhibitory concentration (IC50) is 2700 nM on Estrogen receptor beta, 120 nM in series [1] and 3 µM on Androgen receptor. Moreover, the remaining at 0.5 h, 1 µM in series [2] came out at 89%. In addition, the result in series [3] and in series [4] was inactive.
Consider `C[C@H](c1ccc(F)cc1)N1C(=O)O[C@](Cc2ccccc2)(c2nc3cc(Cl)ccc3[nH]2)C1=O`, for which the IC50 worked out at 2400 nM on Estrogen receptor beta, 160 nM in series [1] and 3.1 µM at Androgen receptor. In addition, the remaining at 0.5 h, 1 µM in series [2] is 55%. The result in series [3] and in series [4] was inactive.
As to `C[C@H](c1ccc(F)cc1)N1C(=O)O[C@](Cc2ccccc2)(c2nc3cc(N4CCOCC4)ccc3[nH]2)C1=O`, the IC50 at Estrogen receptor beta was 5300 nM; in series [1], 40 nM; at Androgen receptor, 7.7 µM. The remaining at 0.5 h, 1 µM in series [2] amounted to 81%. Further, the result in series [3] and in series [4] was inactive.
As for `C[C@H](c1ccc(F)cc1)N1C(=O)O[C@](Cc2ccccc2)(c2nc3cc(NS(C)(=O)=O)ccc3[nH]2)C1=O`, the IC50 on Estrogen receptor beta worked out at 12000 nM; in series [1], 220 nM; on Androgen receptor it was 13 µM. The remaining at 0.5 h, 1 µM in series [2] is 93%. In addition, the result in series [3] and in series [4] was inactive.
For `C[C@H](c1ccc(F)cc1)N1C(=O)O[C@](Cc2ccccc2)(c2nc3cc(-c4cccnc4)ccc3[nH]2)C1=O`, the IC50 came to 2700 nM at Estrogen receptor beta, 34 nM in series [1] and 3.7 µM at Androgen receptor. The remaining at 0.5 h, 1 µM in series [2] is 94%. The outcome in series [3] and in series [4] was inactive.
Turning to `C[C@H](c1ccc(F)cc1)N1C(=O)O[C@](Cc2ccccc2)(c2nc3cc(-c4cc[nH]n4)ccc3[nH]2)C1=O`, the IC50 was 2600 nM on Estrogen receptor beta, 120 nM in series [1] and 3.1 µM at Androgen receptor. In series [2], the remaining at 0.5 h, 1 µM is 86%. Moreover, the result in series [3] and in series [4] was inactive.
In the case of `Cc1nocc1-c1ccc2[nH]c([C@@]3(Cc4ccccc4)OC(=O)N([C@H](C)c4ccc(F)cc4)C3=O)nc2c1`, the IC50 on Estrogen receptor beta was found to be 3000 nM; in series [1] it was 39 nM; at Androgen receptor it was 3.4 µM. The remaining at 0.5 h, 1 µM in series [2] was found to be 27%. The outcome in series [3] and in series [4] was inactive.
